Test results taken from patent US11311498B2, “Use of cannabinoids in the treatment of epilepsy” (GW Pharma Limited, priority 2014, dated 2022).

Legend:
[1] = Solubility of the drug substance in water; assay type: physicochemical
Excerpt: Sesame oil was selected as an excipient to solubilize the drug substance.

absence seizures = assay: Expanded access program: absence seizures in children and young adults with treatment-resistant epilepsy; assay type: in vivo, human; details: 12 weeks of treatment vs 4-week baseline; n = 28; CBD 5 up to 25 mg/kg/day added to baseline AED
Experimental: (§1) The terms “50% responder” and “50% reduction in seizure” are both terms used in clinical studies. In the present application the terms define the percentage of subjects that experienced a greater than or equal to 50% reduction in the number of seizures during treatment with CBD in comparison to the number experienced during the baseline period before the CBD was administered.
(§2) Of 137 children and young adults with severe, childhood onset treatment-resistant epilepsy (TRE), forty-two suffered from epilepsy that was characterised by absence seizures. These subjects were tested with a highly purified extract of cannabidiol (CBD) obtained from a cannabis plant. All subjects presented with absence type seizures, often in addition to other generalised and/or focal seizures. The participants in the study were part of an expanded access compassionate use program for CBD.
The epileptic syndromes that these patients suffered from were as follows: Lennox-Gastaut Syndrome; Myoclonic Absence Epilepsy; Tuberous Sclerosis Complex; Dravet Syndrome; Doose Syndrome; Jeavons Syndrome; CDKL5; Dup15q; Neuronal ceroid lipofuscinoses (NCL) and brain abnormalities. […]

[2] = tested on: myoclonic absence seizures; assay: Expanded access program: myoclonic absence seizures in children and young adults with treatment-resistant epilepsy; assay type: in vivo, human; details: 12 weeks of treatment vs 4-week baseline; head n = 10; CBD 5 up to 25 mg/kg/day added to baseline AED
Experimental: as §1
as §2, with “epilepsy (TRE), ten suffered from” for “epilepsy (TRE), forty-two suffered from”, “characterised by myoclonic absence seizures.” for “characterised by absence seizures.”, “presented with myoclonic absence type” for “presented with absence type”
The epileptic syndromes that these patients suffered from were as follows: Myoclonic Absence Epilepsy; Doose Syndrome; and epilepsy of unknown cause.
(§3) All patients entered a baseline period of 4 weeks when parents/caregivers kept prospective seizure diaries, noting all countable seizure types.
The patients then received a highly purified CBD extract (greater than 98% CBD w/w) in sesame oil, of known and constant composition, at a dose of 5 mg/kg/day in addition to their baseline anti-epileptic drug (AED) regimen. […]

seizures [3] = details: twelve institutionalized adult patients; 200 mg/day pure CBD; open label; cited from earlier work
seizures in mice = details: after pro-convulsant drugs or an electric current; cited from earlier work
seizures [4] = details: of eight adult patients with generalized epilepsy; cited from earlier work
seizures [5] = details: 200 mg/day pure CBD, cited from earlier work
seizures [6] = details: previous studies in animals; multiple species and models; cited from earlier work
total seizures = assay: Expanded access program: total seizures in all subjects treated; assay type: in vivo, human; details: 12 weeks of treatment, n = 137
Experimental: as §1, §2, §3
The patients then received a highly purified CBD extract (greater than 98% CBD w/w) in sesame oil, of known and constant composition, at a dose of 5 mg/kg/day in addition to their baseline anti-epileptic drug (AED) regimen.
Laboratory testing for hematologic, liver, kidney function, and concomitant AED levels was performed at baseline, and after every 4 weeks of CBD therapy.

seizures [7] = details: Consroe et al., 1977; cited from earlier work

| SMILES | solubility in water [1] | <50% reduction in seizures, absence seizures (proportion of patients) (absence seizures) | <50% reduction in seizures, myoclonic absence seizures (proportion of patients) [2] | control of seizures (seizures [3]) | prevention of seizures (seizures in mice) | patients with marked reduction of seizures (seizures [4]) | patients who became seizure free (seizures [5]; of four adult patients) | seizure frequency in the remainder of patients (seizures [5]; remaining two of four adult patients) | anticonvulsant efficacy (seizures [6]) | <50% reduction in seizures, total seizures (proportion of patients) (total seizures) | effect on convulsions (seizures [7]) |
| --- | --- | --- | --- | --- | --- | --- | --- | --- | --- | --- | --- |
| C=C(C)[C@@H]1CCC(C)=C[C@H]1c1c(O)cc(CCCCC)cc1O [CBD, Cannabidiol] | insoluble in water | 36% (n = 10) | 25% (n = 2) | ineffective in controlling seizures | able to prevent seizures | 4 | two | unchanged | has anticonvulsant efficacy in multiple species and models | 54% (n = 74) |  |
| CCCCCc1cc(O)c2c(c1)OC(C)(C)[C@@H]1CCC(C)=C[C@@H]21 [THC, Tetrahydrocannabinol] |  |  |  |  |  |  |  |  |  |  | pro-convulsant |
